Experimental data taken from publication PMC9312876, “Therapeutic Potential of a Novel Vitamin D3 Oxime Analogue, VD1-6, with CYP24A1 Enzyme Inhibitory Activity and Negligible Vitamin D Receptor Binding” (Biomolecules, 2022).

How the values were obtained:
vitamin D receptor (VDR) [1] = target: T1, vitamin D receptor (VDR) (Homo sapiens, UniProt P11473); assay: fluorescence polarization competition with Fluormone VDR Red tracer (PolarScreen); assay type: binding
T1 construct: full-length
T1 sequence (P11473 1-427): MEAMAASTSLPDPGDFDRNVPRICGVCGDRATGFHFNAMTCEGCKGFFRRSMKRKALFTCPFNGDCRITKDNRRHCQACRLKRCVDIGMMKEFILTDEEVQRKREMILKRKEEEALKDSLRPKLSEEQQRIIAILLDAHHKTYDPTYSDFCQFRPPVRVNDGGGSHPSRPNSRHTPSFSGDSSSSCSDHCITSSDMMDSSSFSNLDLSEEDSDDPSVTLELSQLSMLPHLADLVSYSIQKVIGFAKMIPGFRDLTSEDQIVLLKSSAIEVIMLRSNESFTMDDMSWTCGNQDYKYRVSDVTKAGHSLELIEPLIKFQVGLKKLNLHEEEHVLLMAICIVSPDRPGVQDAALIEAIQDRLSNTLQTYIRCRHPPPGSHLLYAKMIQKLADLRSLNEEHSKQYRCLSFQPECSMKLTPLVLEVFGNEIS

vitamin D receptor (VDR) [2] = target: T1, vitamin D receptor (VDR); assay: fluorescence polarization competition with Fluormone VDR Red tracer (PolarScreen); binding only evident above […]

| IC50 (vitamin D receptor (VDR) [1]) [nM] | IC50 (vitamin D receptor (VDR) [2]) [nM] | Structure (SMILES) |
| --- | --- | --- |
| 56.2 |  | C=C1CC[C@H](O)C/C1=C/C=C1\CCC[C@]2(C)[C@@H]([C@H](C)CCCC(C)(C)O)CC[C@@H]12 [25(OH)D3] |
|  | 438 | C=C1/C(=C\C=C2/CCC[C@]3(C)[C@@H]([C@H](C)CCC(=NOC)C(C)(C)C)CC[C@@H]23)C[C@@H](O)C[C@@H]1O [VD1-6] |
